The target in series [1] is T1, rat liver P450 1A1 (Rattus norvegicus, UniProt P00185).
T1 sequence (P00185 1-524): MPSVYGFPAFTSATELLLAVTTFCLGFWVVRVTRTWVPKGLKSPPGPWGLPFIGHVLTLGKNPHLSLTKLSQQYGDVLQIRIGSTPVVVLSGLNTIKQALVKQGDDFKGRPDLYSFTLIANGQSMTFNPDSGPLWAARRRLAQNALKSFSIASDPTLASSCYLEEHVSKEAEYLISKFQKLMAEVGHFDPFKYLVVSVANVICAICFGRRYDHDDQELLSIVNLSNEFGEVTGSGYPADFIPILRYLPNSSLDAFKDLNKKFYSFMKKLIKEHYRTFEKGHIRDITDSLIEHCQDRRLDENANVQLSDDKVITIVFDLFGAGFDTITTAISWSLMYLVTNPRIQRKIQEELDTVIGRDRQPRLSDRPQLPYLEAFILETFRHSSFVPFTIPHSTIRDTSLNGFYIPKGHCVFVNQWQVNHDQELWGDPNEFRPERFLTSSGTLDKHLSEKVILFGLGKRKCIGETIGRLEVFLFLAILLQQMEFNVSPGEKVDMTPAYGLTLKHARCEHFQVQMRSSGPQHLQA
In kind it is binding. Particulars: 1.5 µM rat P450 1A1 (low-spin); 1.25~80 µM BSC.

Series [2] has as its target T2, rat liver P450 1A2 (Rattus norvegicus, UniProt P04799).
T2 sequence (P04799 1-513): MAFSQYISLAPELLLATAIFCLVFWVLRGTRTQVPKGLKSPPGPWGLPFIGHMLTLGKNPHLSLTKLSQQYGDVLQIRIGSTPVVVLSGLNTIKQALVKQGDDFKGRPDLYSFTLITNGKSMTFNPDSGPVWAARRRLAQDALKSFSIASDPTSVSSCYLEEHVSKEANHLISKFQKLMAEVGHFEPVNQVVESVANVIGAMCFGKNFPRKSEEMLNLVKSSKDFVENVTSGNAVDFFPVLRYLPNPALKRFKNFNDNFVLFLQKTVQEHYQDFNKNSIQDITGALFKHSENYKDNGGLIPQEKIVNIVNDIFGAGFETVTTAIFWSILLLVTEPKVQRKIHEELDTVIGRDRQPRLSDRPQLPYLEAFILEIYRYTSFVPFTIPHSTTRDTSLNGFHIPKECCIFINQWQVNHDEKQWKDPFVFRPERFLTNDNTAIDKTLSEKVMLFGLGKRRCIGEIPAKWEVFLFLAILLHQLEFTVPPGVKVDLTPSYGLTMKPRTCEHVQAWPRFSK
In kind it is binding.

Series [3] deals with T3, P450 1A1 (Homo sapiens, UniProt P04798).
T3 sequence (P04798 1-512): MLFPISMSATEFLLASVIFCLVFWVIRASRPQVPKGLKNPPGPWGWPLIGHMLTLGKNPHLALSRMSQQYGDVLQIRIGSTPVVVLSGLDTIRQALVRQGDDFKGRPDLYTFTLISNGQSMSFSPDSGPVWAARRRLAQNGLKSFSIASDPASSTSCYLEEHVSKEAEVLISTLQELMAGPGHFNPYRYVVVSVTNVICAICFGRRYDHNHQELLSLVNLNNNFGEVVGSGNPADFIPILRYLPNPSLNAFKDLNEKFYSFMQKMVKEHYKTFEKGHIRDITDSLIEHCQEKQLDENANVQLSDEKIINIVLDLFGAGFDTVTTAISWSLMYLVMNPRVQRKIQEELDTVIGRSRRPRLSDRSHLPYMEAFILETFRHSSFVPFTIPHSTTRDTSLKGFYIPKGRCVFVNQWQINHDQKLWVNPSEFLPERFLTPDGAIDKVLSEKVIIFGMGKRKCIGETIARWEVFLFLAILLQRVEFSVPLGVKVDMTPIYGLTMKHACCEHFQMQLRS
In words: Inhibition of P450 1A1-dependent EROD activity. The class given is biochemical.

The target in series [4] is T4, P450 1A2 (Homo sapiens, UniProt P05177).
T4 sequence (P05177 1-516): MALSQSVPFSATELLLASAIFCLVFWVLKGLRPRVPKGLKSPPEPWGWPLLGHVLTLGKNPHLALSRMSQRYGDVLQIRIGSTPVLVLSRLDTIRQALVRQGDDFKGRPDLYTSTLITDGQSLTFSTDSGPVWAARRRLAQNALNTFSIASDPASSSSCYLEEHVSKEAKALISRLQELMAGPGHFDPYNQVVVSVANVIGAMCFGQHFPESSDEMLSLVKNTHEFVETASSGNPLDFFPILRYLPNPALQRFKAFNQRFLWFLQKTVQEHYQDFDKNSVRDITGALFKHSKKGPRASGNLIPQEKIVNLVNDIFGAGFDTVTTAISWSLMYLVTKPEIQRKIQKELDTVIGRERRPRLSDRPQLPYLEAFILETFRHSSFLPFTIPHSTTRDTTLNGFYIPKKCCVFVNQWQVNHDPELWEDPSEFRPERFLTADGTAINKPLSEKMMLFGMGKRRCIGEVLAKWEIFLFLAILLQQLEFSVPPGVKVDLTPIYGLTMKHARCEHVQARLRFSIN
Kind of series: Inhibition of P450 1A2-dependent EROD activity. The class given is biochemical.

These results are taken from article PMC3156385 (Chemical research in toxicology, 2011).

In general, Kd refers to the free concentration of one partner at which half of the binding sites on the other are occupied at equilibrium, for simple one-to-one binding. For orientation: IC50 means the concentration that gives 50% inhibition. A lower IC50 goes with higher potency.

In the case of `N#C[Se]Cc1ccccc1` [BSC, benzyl selenocyanate], in series [1], the spectral changes result is “did not show any spectral changes”. Also, in series [2], the Kd is 16000 ± 2400 nM. In addition, the results for the IC50 in series [3] and in series [4] were 450 ± 38 nM and 1300 ± 220 nM, respectively.
